Results on 3 compounds are retold here after patent publication US20230381144A1, “COMPOSITIONS AND METHODS FOR TREATMENT OF PAIN” (SYNVENTA LLC, priority 2019, published 2023).

Data set [1] is described as follows: Radio-telemetry recording of core body temperature in conscious rats. The class given is in vivo, Sprague-Dawley rat. As for the experimental part: A laparotomy is performed.
One week later, drugs tests are conducted.
FIGS. 2-4 all show an increase in core body temperature approaching and at the zero time point. Those skilled in the art would readily appreciate that this increase is an artifact in the study associated with the required handling of the animals to effectuate the dosing.

The conditions of data set [2]: 0.003 mg/kg and 0.01 mg/kg, i.p.; male and female rats.
Description: Adult male and female Sprague-Dawley are implanted with radio-telemetry transmitters for monitoring blood pressure and core body temperature. Radio-telemetry transmitter (DSI HD-S10) implantation is performed under sterile condition. Long-acting buprenorphine (1 mg/kg/day, SC) is administered prior to anesthesia for postoperative pain relief. Rats are anesthetized with 5% isoflurane and kept on 2% isoflurane to maintain a stable level of anesthesia. Body temperature is maintained during surgery using a heating pad. A laparotomy is performed. The catheter tip of the telemetry transmitter is secured with a 4-0 silk suture in the abdominal cavity. The body of the telemetry transmitter is placed in the abdominal cavity and secured to the abdominal wall. Approximately 100 μL of 0.25% marcaine is applied directly to the muscle incision, and the skin is then closed with a 5-0 Vicryl absorbable suture placed subcuticularly. After recovery from anesthesia, rats are returned to their home cages placed on DSI receivers.
After one week of recovery, rats are habituated to the drug administration procedure over three separate sessions. One week later, drugs tests are conducted. […]
For data set [3] the following is noted: cited from earlier work.

Take `CC(C)(C)c1ccc2c(c1)CC[C@H]2NC(=O)Nc1cccc2[nH]ncc12` [ABT-102, 1-[(1R)-5-tert-butyl-2,3-dihydro-1H-inden-1-yl]-3-(1H-indazol-4-yl)urea]: the “increase in body temperature above vehicle” value in data set [1] (conscious, telemetry-instrumented rat, ABT-102 3 and 10 mg/kg, p.o., FIG. 2) is “up to 1.0 °C”.
As for `Cc1cccc([C@H](C)c2cnc[nH]2)c1C` [dexmedetomidine], the “effect of dexmedetomidine on its own (FIG. 5, mean arterial blood pressure)” value in data set [2] is recorded as “free from causing hypothermic effects”. Besides, in data set [1] (dexmedetomidine 0.003 mg/kg in combination with ABT-102, FIG. 4), the “effect on ABT-102-induced hyperthermia at the lowest tested dose” value is on record as “able to neutralize ABT-102-induced hyperthermia”. Also, the “effect on core body temperature” value in data set [1] (dexmedetomidine alone, 0.003 mg/kg, FIG. 3) was “no effect”. Further, in data set [1] (dexmedetomidine in combination with ABT-102 5 mg/kg, p.o., FIG. 4, p<0.0001), the “effect on ABT-102-induced increase in core body temperature” value is given as “prevented hyperthermic effects”.
Turning to `CC(=O)Nc1nc2c(Oc3cc(-c4ccc(C(F)(F)F)cc4)ncn3)cccc2s1` [AMG 517, N-(4-((6-(4-(trifluoromethyl)phenyl)pyrimidin-4-yl)oxy)benzo[d]thiazol-2-yl)acetamide], in data set [3] (Phase 1b study, reason the study was halted), the temperature elevations entry is given as “unexpectedly high temperature elevations”. The analgesic effect entry in data set [3] (review of the data for the 17 subjects enrolled) was “no clear analgesic effect”.
